In patent publication EP0126944B1, “Use of 6-(Z) or 2-(Z) configurational 3,7,11-trimethyl-dodeca-2,6,10-trien-1-ols as bacteriostats in cosmetic products” (Dragoco Gerberding & Co. GmbH, priority 1983, dated 1984):

Tests used:
Experiment in all cases: Vertical diffusion test (impregnated filter paper embedded in agar)
Format in all cases: cell-based
Corynebacterium species = conditions: 0,3 %; for Vertikaler Diffusionstest, Corynebacteriumt species 10^4 / Vertikaler Diffusionstest, Corynebacteriumt species 10^6 KBE/ml: 0,2 ml/ 15,9 cm^2; for Vertikaler Diffusionstest, Corynebacteriumt species 10^4: 10^4 KBE/ml; for antibakterielle Wirkung: Tabelle 1, Corynebacterium species
From the text: (§1) Die mikrobiologischen Prüfungen wurden mit den Bakterienarten Staphylococcus aureus, Corynebacterium species und Staphylococcus epidermidis durchgeführt. Es wurden jeweils Konzentrationen von 0,3 % der Verbindungen 1a, b, c, 2 gegen unterschiedliche Keimzahlen eingesetzt und 1. mit einer Aufschwemmung von 10^4 koloniebildenden Einheiten/ml (KBE/ml) und 2. mit 10^6 KBE/ml versehen. Die Durchführung der Untersuchung erfolgte in üblicher Weise, indem Filterpapierplättchen mit einer Fläche von 15,9 cm^2 mit je 0,2 ml der 0,3 % igen alkoholischen Konzentrationen beschickt wurden. Nach Trocknen der aufgebrachten Lösungen wurden die Filterpapierplättchen dann in den Agar von Petrischalen eingebettet, so daß die Oberfläche mit einer dünnen Agarschicht überschichtet werden konnte. Danach wurde die ganze Platte mit den Testbakterien in unterschiedlicher Keimkonzentration beimpft. (Tabelle 1)

[1] = system: Staphylococcus aureus SG 511; conditions: for Vertikaler Diffusionstest, Staphylococcus aureus SG 511 10^4 / Vertikaler Diffusionstest, Staphylococcus aureus SG 511 10^6 KBE/ml / antibakterielle Wirkung: 0,3 %; for Vertikaler Diffusionstest, Staphylococcus aureus SG 511 10^4 / Vertikaler Diffusionstest, Staphylococcus aureus SG 511 10^6 KBE/ml: 0,2 ml/ 15,9 cm^2; for Vertikaler Diffusionstest, Staphylococcus aureus SG 511 10^4: 10^4 KBE/ml; for antibakterielle Wirkung: Tabelle 1
From the text: as §1

[2] = system: Staphylococcus epidermidis; conditions: for Vertikaler Diffusionstest, Staphylococcus epidermidis 10^4 / Vertikaler Diffusionstest, Staphylococcus epidermidis 10^6 KBE/ml / Hemmung / antibakterielle Wirkung: 0,3 %; for Vertikaler Diffusionstest, Staphylococcus epidermidis 10^4 / Vertikaler Diffusionstest, Staphylococcus epidermidis 10^6 KBE/ml: 0,2 ml/ 15,9 cm^2; for Vertikaler Diffusionstest, Staphylococcus epidermidis 10^4: 10^4 KBE/ml; for Hemmung / antibakterielle Wirkung: Tabelle 1
From the text: as §1

Structure (SMILES)	Vertikaler Diffusionstest, Corynebacteriumt species 10^4 (Corynebacterium species)	Vertikaler Diffusionstest, Corynebacteriumt species 10^6 KBE/ml (Corynebacterium species)	antibakterielle Wirkung (Corynebacterium species)	Vertikaler Diffusionstest, Staphylococcus aureus SG 511 10^4 [1]	Vertikaler Diffusionstest, Staphylococcus aureus SG 511 10^6 KBE/ml [1]	antibakterielle Wirkung ([1]; Staphylococcus aureus)	Vertikaler Diffusionstest, Staphylococcus epidermidis 10^4 [2]	Vertikaler Diffusionstest, Staphylococcus epidermidis 10^6 KBE/ml [2]	Hemmung ([2]; Staphylococcus epidermidis)	antibakterielle Wirkung ([2]; Staphylococcus epidermidis)	Wirksamkeit ([1]; compared with 1a, b, c, Staphylococcus aureus)	Wirksamkeit ([2]; compared with 1a, b, c, Staphylococcus epidermidis)
CC(C)=CCC/C(C)=C/CC/C(C)=C\CO [Substanz 1a]	0	0	deutliche antibakterielle Wirkung	0	0	deutliche antibakterielle Wirkung	0 - 1	0 - 1	fast totale Hemmung	deutliche antibakterielle Wirkung	–	–
CC(C)=CCC/C(C)=C\CC/C(C)=C/CO [Substanz 1b]	0	0	deutliche antibakterielle Wirkung	0	0	deutliche antibakterielle Wirkung	0	0 - 1	fast totale Hemmung	deutliche antibakterielle Wirkung	–	–
CC(C)=CCC/C(C)=C\CC/C(C)=C\CO [Substanz 1c]	0	0	deutliche antibakterielle Wirkung	0	0	deutliche antibakterielle Wirkung	0	0 - 1	fast totale Hemmung	deutliche antibakterielle Wirkung	–	–
CC(C)=CCCC(C)=CCCC(C)=CCO [Substanz 2, Farnesol, reference compound]	0	0	–	0 - 1	0 - 1	–	1 - 2	1 - 2	–	–	etwas geringerer Wirksamkeit	etwas geringerer Wirksamkeit
